Our source for the Ki, Displacement and Change in cAMP values is ChEMBL document CHEMBL1145202, “A series of ligands displaying a remarkable agonistic-antagonistic profile at the adenosine A1 receptor” (J Med Chem, 2005).

Each structure is given as a SMILES string. pKi: −log10 of the molar value.

One assay concerns the target T1, Adenosine receptor A1 (Homo sapiens, UniProt P30542).
T1 sequence (P30542 whole entry): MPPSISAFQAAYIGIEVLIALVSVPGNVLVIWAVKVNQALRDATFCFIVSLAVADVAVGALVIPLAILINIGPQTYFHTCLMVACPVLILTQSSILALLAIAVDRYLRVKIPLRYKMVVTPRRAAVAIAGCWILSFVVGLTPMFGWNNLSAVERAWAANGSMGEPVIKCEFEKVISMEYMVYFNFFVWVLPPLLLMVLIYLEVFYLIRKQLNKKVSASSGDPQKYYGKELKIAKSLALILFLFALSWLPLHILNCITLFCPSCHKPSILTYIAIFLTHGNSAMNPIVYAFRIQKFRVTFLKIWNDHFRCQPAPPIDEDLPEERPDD
In words: biochemical.

Assay [1] deals with T2, Adenosine receptor A3 (Homo sapiens) (UniProt P0DMS8).
T2 sequence (whole entry): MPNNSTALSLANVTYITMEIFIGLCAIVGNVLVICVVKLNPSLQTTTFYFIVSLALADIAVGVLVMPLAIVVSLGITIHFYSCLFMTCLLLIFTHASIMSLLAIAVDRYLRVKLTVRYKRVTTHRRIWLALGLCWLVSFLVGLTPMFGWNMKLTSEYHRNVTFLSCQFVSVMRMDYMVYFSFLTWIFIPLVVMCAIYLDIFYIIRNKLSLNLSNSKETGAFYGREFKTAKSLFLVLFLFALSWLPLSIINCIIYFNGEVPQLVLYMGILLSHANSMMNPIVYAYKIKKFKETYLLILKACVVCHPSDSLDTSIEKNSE
In words: Percent displacement of [125I]AB-MECA binding to human adenosine A3 receptor expressed in HEK 293 cells at 1 uM. To be noted: HEK293. In kind it is cell-based. For orientation: Displacement assays read how much labelled ligand stays bound in the presence of the test substance.

In assay [2] the target is T3, Adenosine receptor A1 (Homo sapiens) (UniProt P30542).
T3 sequence (whole entry): T1 sequence (P30542 whole entry)
In words: Effect on forskolin-induced cAMP levels at human A1 adenosine receptor compared to CPA (full agonist, 100% inhibition) and DPCPX(full inverse agonist, 100% stimulation). The class given is functional. In general terms: cAMP levels reflect the balance of adenylyl cyclase and phosphodiesterase activity.

Assay [3] concerns the target Adenosine receptor A2a (Homo sapiens) (UniProt P29274). In words: Percent displacement of [3H]-ZM 241385 binding to human adenosine A2A receptor expressed in CHO cells at 1 uM. In kind it is cell-based.
Assay [4] deals with T3, Adenosine receptor A1 (Homo sapiens). Put plainly: Percent displacement of [3H]DPCPX binding to human adenosine A1 receptor expressed in CHO cells at 1 uM. The class given is cell-based.

Sequence of Adenosine receptor A2a (Homo sapiens) (P29274 whole entry): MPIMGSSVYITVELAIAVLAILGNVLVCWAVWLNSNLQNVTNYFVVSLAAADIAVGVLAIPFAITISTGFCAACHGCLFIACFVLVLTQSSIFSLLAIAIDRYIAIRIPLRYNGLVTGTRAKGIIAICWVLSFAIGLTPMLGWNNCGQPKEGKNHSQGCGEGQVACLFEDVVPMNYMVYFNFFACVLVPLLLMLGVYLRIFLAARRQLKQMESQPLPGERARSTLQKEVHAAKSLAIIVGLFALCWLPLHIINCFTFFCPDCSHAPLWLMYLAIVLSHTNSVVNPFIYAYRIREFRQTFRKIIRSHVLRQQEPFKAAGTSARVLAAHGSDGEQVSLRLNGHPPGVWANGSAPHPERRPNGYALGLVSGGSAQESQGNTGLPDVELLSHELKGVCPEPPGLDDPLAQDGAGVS

The pKi is −log10 of the Ki, conventionally taken in molar units. Read a high pKi as a low Ki. `N#Cc1c(N)nc(SCCO)c(C#N)c1-c1ccc(C(F)(F)F)cc1` gave a pKi at Adenosine receptor A1 of 6.82. Further, the Displacement in assay [1] was 0%; in assay [3] it was 13%. Further, the Change in cAMP in assay [2] was found to be 48%.

In the case of `COc1ccc(-c2c(C#N)c(N)nc(SCCO)c2C#N)cc1OC`, the Displacement worked out at 25% in assay [4], 0% in assay [1] and 25% in assay [3].

For `COc1cccc(-c2c(C#N)c(N)nc(SCCO)c2C#N)c1`, the pKi at Adenosine receptor A1 was 8.37. The Displacement in assay [1] is 18%; in assay [3], 21%. Further, the Change in cAMP in assay [2] was -58%.

For `N#Cc1c(N)nc(SCCO)c(C#N)c1-c1cccc(C(F)(F)F)c1`, the negative logarithm of the Ki (pKi) at Adenosine receptor A1 was 7.85. Besides, the Displacement in assay [1] is 49%; in assay [3] it was 22%. Moreover, in assay [2], the Change in cAMP is 85%.

For the molecule `N#Cc1c(N)nc(SCCO)c(C#N)c1-c1cccc(OC(F)F)c1`, the pKi on Adenosine receptor A1 is 7.40. Further, the Displacement in assay [1] is 12%; in assay [3] it was 8%. For the same molecule, the Change in cAMP in assay [2] worked out at 6%.

On to `N#Cc1c(N)nc(SCCO)c(C#N)c1-c1ccc(OC(F)F)cc1`, for which the pKi at Adenosine receptor A1 was 7.47. The Displacement in assay [1] is 23%; in assay [3], 0%. Moreover, the Change in cAMP in assay [2] amounted to 4%.

As for `OC[C@H]1O[C@@H](n2cnc3c(NC4CCCC4)ncnc32)[C@H](O)[C@@H]1O`, the Change in cAMP in assay [2] was -100%.

The molecule `Cc1cccc(-c2c(C#N)c(N)nc(SCCO)c2C#N)c1` showed a pKi on Adenosine receptor A1 of 7.09. The Displacement in assay [1] was 5%; in assay [3], 29%. In addition, in assay [2], the Change in cAMP was -78%.

`N#Cc1c(N)nc(SCCO)c(C#N)c1-c1cccc(OC(F)(F)F)c1` had a pKi on Adenosine receptor A1 of 7.52. Moreover, the Displacement amounted to 11% in assay [1] and 3% in assay [3]. Also, in assay [2], the Change in cAMP is 80%.

`N#Cc1c(N)nc(SCCO)c(C#N)c1-c1ccc(OC(F)(F)F)cc1` gave a pKi on Adenosine receptor A1 of 6.81. The Displacement is 10% in assay [1] and 0% in assay [3]. The Change in cAMP in assay [2] came out at 12%.

At Adenosine receptor A1, `Cc1ccc(-c2c(C#N)c(N)nc(SCCO)c2C#N)cc1` showed a pKi of 7.31. Further, the Displacement is 0% in assay [1] and 20% in assay [3]. Besides, the Change in cAMP in assay [2] is -16%.

Molecule `N#Cc1c(N)nc(SCCO)c(C#N)c1-c1cccc(O)c1` gave a pKi at Adenosine receptor A1 of 7.92. Moreover, the Displacement in assay [1] worked out at 16%; in assay [3], 25%. Also, in assay [2], the Change in cAMP was -105%.

As to `N#Cc1c(N)nc(SCCO)c(C#N)c1-c1ccccc1`, the pKi at Adenosine receptor A1 is 7.82. In addition, the values for the Displacement in assay [1] and in assay [3] were 26% and 23%, respectively. Moreover, the Change in cAMP in assay [2] was -72%.

Molecule `COc1ccc(-c2c(C#N)c(N)nc(SCCO)c2C#N)cc1` gave a pKi at Adenosine receptor A1 of 7.39. Also, the Displacement in assay [1] stood at 21%; in assay [3], 8%. Moreover, in assay [2], the Change in cAMP is -16%.

For `CCCn1c(=O)c2[nH]c(C3CCCC3)nc2n(CCC)c1=O`, the Change in cAMP in assay [2] was 100%.

For `N#Cc1c(N)nc(SCCO)c(C#N)c1-c1ccc(F)cc1`, on Adenosine receptor A1, the pKi is 7.09. For the same molecule, the Displacement was found to be 0% in assay [1] and 4% in assay [3]. The Change in cAMP in assay [2] is -51%.

As to `N#Cc1c(N)nc(SCCO)c(C#N)c1-c1ccc(O)cc1`, the pKi at Adenosine receptor A1 is 7.64. The values for the Displacement in assay [1] and in assay [3] were 0% and 37%, respectively. The Change in cAMP in assay [2] is -93%.

In turn, `Cn1cnc2c(NC3CCCC3)ncnc21` gave a pKi at Adenosine receptor A1 of 5.97. This molecule also registered a Displacement in assay [1] of 15%. Also, the Change in cAMP in assay [2] is 72%.

Consider `CN(C)c1ccc(-c2c(C#N)c(N)nc(SCCO)c2C#N)cc1`, for which, on Adenosine receptor A1, the pKi was 6.61. Further, the results for the Displacement in assay [1] and in assay [3] were 7% and 0%, respectively. Moreover, in assay [2], the Change in cAMP was -65%.

On to `N#Cc1c(N)nc(SCCO)c(C#N)c1-c1ccc2c(c1)OCO2`, for which, at Adenosine receptor A1, the pKi is 7.96. Moreover, the figures for the Displacement in assay [1] and in assay [3] were 13% and 33%, respectively. For the same molecule, the Change in cAMP in assay [2] was -111%.

Molecule `N#Cc1c(N)nc(SCCO)c(C#N)c1-c1cccc(F)c1` had a pKi at Adenosine receptor A1 of 7.40. Besides, the Displacement in assay [1] was found to be 8%; in assay [3] it was 19%. The Change in cAMP in assay [2] was -102%.
